Laboratory results reported in PubChem BioAssay AID1259408 (Genetic Toxicology Data Bank (GENE-TOX), 2018).
Activity calls are given as the source filed them. How the calls were made is not given here.

Test system: GENE-TOX genotoxicity assays, various organisms and cells
Assay: GENE-TOX mutagenicity studies
Details: for call: Assay Type: In vivo carcinogenicity studies

CCOS(C)(=O)=O
mutagenic call (Species/Cell Type: Arabidopsis species, Assay Type: Gene mutation, Assay Code: ARM+D, Dose Response: With dose response, Evaluation Type: Evaluation A (Pre-1980)): active; positive | mutagenic call (Species/Cell Type: Aspergillus nidulans, Assay Type: Forward gene mutation, Assay Code: ASF+, Evaluation Type: Evaluation A (Pre-1980)): active; positive | mutagenic call (Species/Cell Type: Aspergillus nidulans, Assay Type: Reverse gene mutation, Assay Code: ASR+, Evaluation Type: Evaluation A (Pre-1980)): active; positive | mutagenic call (Species/Cell Type: Chinese hamster lung (V79) cells, Assay Type: Forward gene mutation at the HPRT or ouabain locus, Assay Code: V79+, Evaluation Type: Evaluation A (Pre-1980)): active; positive | mutagenic call (Species/Cell Type: Chinese hamster ovary (CHO) cells, Assay Type: Forward gene mutation at the HPRT locus, Assay Code: CHO+D, Dose Response: With dose response, Evaluation Type: Evaluation A (Pre-1980)): active; positive | mutagenic call (Species/Cell Type: Drosophila melanogaster, Assay Type: Sex-linked recessive lethal gene mutation, Assay Code: SRL+, Evaluation Type: Evaluation A (Pre-1980)): active; positive | mutagenic call (Species/Cell Type: Drosophila melanogaster, Sex: Male, Assay Type: Heritable translocation test, chromosome aberrations, Assay Code: DHT+, Evaluation Type: Evaluation A (Pre-1980)): active; positive | mutagenic call (Species/Cell Type: Escherichia coli WP2, Assay Type: Tryptophan reverse gene mutation, Assay Code: WP2+, Evaluation Type: Evaluation A (Pre-1980)): active; positive | mutagenic call (Species/Cell Type: Escherichia coli WP2 UVRA, Assay Type: Tryptophan reverse gene mutation, Assay Code: WPU+, Evaluation Type: Evaluation A (Pre-1980)): active; positive | mutagenic call (Species/Cell Type: Escherichia coli polA (W3119 vs P3478), Assay Type: Rec-assay, DNA effects (bacterial DNA repair), Assay Code: RE1+, Evaluation Type: Evaluation A (Pre-1980)): active; positive | mutagenic call (Species/Cell Type: F1 mouse, Sex: Male, Assay Type: Sperm morphology, Assay Code: SPF+, Evaluation Type: Evaluation A (Pre-1980)): active; positive | mutagenic call (Species/Cell Type: Glycine max (soybean), Assay Type: Gene mutation, Assay Code: GLM+, Evaluation Type: Evaluation A (Pre-1980)): active; positive | mutagenic call (Species/Cell Type: Hordeum vulgare (barley), Assay Type: Chromosome aberrations, Assay Code: HOC+D, Dose Response: With dose response, Evaluation Type: Evaluation A (Pre-1980)): active; positive | mutagenic call (Species/Cell Type: Hordeum vulgare (barley), Assay Type: Gene mutation, Assay Code: HOM+D, Dose Response: With dose response, Evaluation Type: Evaluation A (Pre-1980)): active; positive | mutagenic call (Species/Cell Type: Human diploid fibroblasts, Assay Type: Unscheduled DNA synthesis (UDS) in vitro, DNA effects, Assay Code: UDH+D, Dose Response: With dose response, Evaluation Type: Evaluation A (Pre-1980)): active; positive | mutagenic call (Species/Cell Type: Human lymphocytes, Assay Type: Micronucleus test in vitro, chromosome aberrations, Assay Code: MN7+, Evaluation Type: Evaluation A (Pre-1980)): active; positive | mutagenic call (Species/Cell Type: Human lymphocytes, Assay Type: Sister-chromatid exchange (SCE) in vitro, Assay Code: SCL+, Evaluation Type: Evaluation A (Pre-1980)): active; positive | mutagenic call (Species/Cell Type: Human, Assay Type: Sister-chromatid exchange (SCE) in vitro, Assay Code: SC1+D, Dose Response: With dose response, Evaluation Type: Evaluation A (Pre-1980)): active; positive | mutagenic call (Species/Cell Type: Mammalian germ cells, Sex: Male, Assay Type: Chromosome aberrations in vivo, Assay Code: CY9T, Evaluation Type: Evaluation A (Pre-1980)): no conclusion | mutagenic call (Species/Cell Type: Mammalian polychromatic erythrocytes, Assay Type: Micronucleus test, chromosome aberrations, Assay Code: MNT+, Evaluation Type: Evaluation A (Pre-1980)): active; positive | mutagenic call (Species/Cell Type: Mouse germ cells, Sex: Male, Assay Type: Unscheduled DNA synthesis (UDS) in vivo, DNA effects, Assay Code: UDT+, Evaluation Type: Evaluation A (Pre-1980)): active; positive | mutagenic call (Species/Cell Type: Mouse lymphoma (L5178Y) cells, Assay Type: Forward gene mutation at the thymidine kinase (TK) locus, chromosome aberrations, Assay Code: L51+, Evaluation Type: Evaluation A (Pre-1980)): active; positive | mutagenic call (Species/Cell Type: Mouse, Sex: Female, Assay Type: Spot test, gene mutation, Assay Code: MST+, Evaluation Type: Evaluation A (Pre-1980)): active; positive | mutagenic call (Species/Cell Type: Mouse, Sex: Male, Assay Type: Heritable translocation test, chromosome aberrations, Assay Code: HTT+D, Dose Response: With dose response, Evaluation Type: Evaluation A (Pre-1980)): active; positive | mutagenic call (Species/Cell Type: Mouse, Sex: Male, Assay Type: Specific locus test, gene mutation, Assay Code: SLT+, Evaluation Type: Evaluation A (Pre-1980)): active; positive | mutagenic call (Species/Cell Type: Mouse, Sex: Male, Assay Type: Sperm morphology, Assay Code: SPI+, Evaluation Type: Evaluation A (Pre-1980)): active; positive | mutagenic call (Species/Cell Type: Neurospora crassa, Assay Type: Aneuploidy, chromosome aberrations, Assay Code: NEN-, Evaluation Type: Evaluation A (Pre-1980)): inactive; negative | mutagenic call (Species/Cell Type: Neurospora crassa, Assay Type: Forward gene mutation, Assay Code: NEF+, Evaluation Type: Evaluation A (Pre-1980)): active; positive | mutagenic call (Species/Cell Type: Neurospora crassa, Assay Type: Reverse gene mutation, Assay Code: NER+, Evaluation Type: Evaluation A (Pre-1980)): active; positive | mutagenic call (Species/Cell Type: Nonhuman bone marrow, Assay Type: Chromosome aberrations, in vivo, Assay Code: CY#+, Evaluation Type: Evaluation A (Pre-1980)): active; positive | call (Species/Cell Type: Nonhuman, Assay Code: CCG+, Evaluation Type: Evaluation A (Pre-1980)): active; positive | mutagenic call (Species/Cell Type: Nonhuman, Assay Type: Sister-chromatid exchange (SCE) in vitro, Assay Code: SC2+D, Dose Response: With dose response, Evaluation Type: Evaluation A (Pre-1980)): active; positive | mutagenic call (Species/Cell Type: Nonhuman, Assay Type: Sister-chromatid exchange (SCE) in vivo, Assay Code: SC3+D, Dose Response: With dose response, Evaluation Type: Evaluation A (Pre-1980)): active; positive | mutagenic call (Species/Cell Type: Plant, Assay Type: Micronucleus test, chromosome aberrations, Assay Code: MNP-, Evaluation Type: Evaluation A (Pre-1980)): inactive; negative | mutagenic call (Species/Cell Type: Rodents, Sex: Male, Assay Type: Dominant lethal test, Assay Code: DLT+D, Dose Response: With dose response, Evaluation Type: Evaluation A (Pre-1980)): active; positive | mutagenic call (Species/Cell Type: Saccharomyces cerevisiae, Assay Type: Aneuploidy, chromosome aberrations, Assay Code: YEN+, Evaluation Type: Evaluation A (Pre-1980)): active; positive | mutagenic call (Species/Cell Type: Saccharomyces cerevisiae, Assay Type: Forward gene mutation, Assay Code: YEF+, Evaluation Type: Evaluation A (Pre-1980)): active; positive | mutagenic call (Species/Cell Type: Saccharomyces cerevisiae, Assay Type: Mitotic recombination or gene conversion, Assay Code: YEC+, Evaluation Type: Evaluation A (Pre-1980)): active; positive | mutagenic call (Species/Cell Type: Saccharomyces cerevisiae, Assay Type: Mitotic recombination or gene conversion, Assay Code: YEH+, Evaluation Type: Evaluation A (Pre-1980)): active; positive | mutagenic call (Species/Cell Type: Saccharomyces cerevisiae, Assay Type: Reverse gene mutation, Assay Code: YER+, Evaluation Type: Evaluation A (Pre-1980)): active; positive | mutagenic call (Species/Cell Type: Salmonella typhimurium (one or more of the five standard strains: TA98, TA100, TA1535, TA1537, and TA1538), Assay Type: Histidine reverse gene mutation, Ames assay, Assay Code: SAL+, Evaluation Type: Evaluation A (Pre-1980)): active; positive | mutagenic call (Species/Cell Type: Salmonella typhimurium, Escherichia coli, Serratia marcesens, Neurospora crassa, Saccharomyces cerevisiae, Chinese hamst, Assay Type: Forward and reverse gene mutation, lethal mutation, mitotic recombination and gene conversion, DNA effects, host-mediate, Assay Code: HM8+, Evaluation Type: Evaluation A (Pre-1980)): active; positive | mutagenic call (Species/Cell Type: Schizosaccharomyces pombe, Assay Type: Forward gene mutation, Assay Code: YEY+, Evaluation Type: Evaluation A (Pre-1980)): active; positive | mutagenic call (Species/Cell Type: Schizosaccharomyces pombe, Assay Type: Reverse gene mutation, Assay Code: YEZ+, Evaluation Type: Evaluation A (Pre-1980)): active; positive | mutagenic call (Species/Cell Type: Syrian hamster embryo (SA7/SHE) cells, Assay Type: Cell transformation, viral enhanced, Assay Code: CT7+, Evaluation Type: Evaluation A (Pre-1980)): active; positive | mutagenic call (Species/Cell Type: Syrian hamster embryo (SHE) cells, Assay Type: Cell transformation, clonal assay, Assay Code: CTC+, Evaluation Type: Evaluation A (Pre-1980)): active; positive | mutagenic call (Species/Cell Type: Syrian hamster embryo (SHE) cells, Assay Type: Cell transformation, focus assay, Assay Code: CTF+, Evaluation Type: Evaluation A (Pre-1980)): active; positive | mutagenic call (Species/Cell Type: Tradescantia species, Assay Type: Chromosome aberrations, Assay Code: TRC+D, Dose Response: With dose response, Evaluation Type: Evaluation A (Pre-1980)): active; positive | mutagenic call (Species/Cell Type: Tradescantia species, Assay Type: Gene mutation, Assay Code: TRM+D, Dose Response: With dose response, Evaluation Type: Evaluation A (Pre-1980)): active; positive | mutagenic call (Species/Cell Type: Vicia faba, Assay Type: Chromosome aberrations, Assay Code: VIC+D, Dose Response: With dose response, Evaluation Type: Evaluation A (Pre-1980)): active; positive | mutagenic call (Species/Cell Type: Zea mays (corn), Assay Type: Gene mutation, Assay Code: ZEM+D, Dose Response: With dose response, Evaluation Type: Evaluation A (Pre-1980)): active; positive

C1=Cc2cc3ccc4cccc5ccc(c2CC1)c3c45
mutagenic call (Species/Cell Type: Mouse prostate cells, Assay Type: Cell transformation, Assay Code: CTM-, Evaluation Type: Evaluation A (Pre-1980)): inactive; negative

CC1=C2CCc3c2c(cc2c3ccc3ccccc32)C(O)C1O (stereo not given)
mutagenic call (Species/Cell Type: Chinese hamster lung (V79) cells, Assay Type: Forward gene mutation at the HPRT or ouabain locus, Assay Code: V79-, Evaluation Type: Evaluation A (Pre-1980)): inactive; negative | call (Species/Cell Type: Nonhuman, Assay Code: CCG+L, Evaluation Type: Evaluation A (Pre-1980)): active; positive

CN1CCN(CCCN2c3ccccc3S(=O)c3ccccc32)CC1
mutagenic call (Species/Cell Type: Human lymphocytes, Assay Type: Sister-chromatid exchange (SCE) in vitro, Assay Code: SCLT, Evaluation Type: Evaluation B (Post-1980)): no conclusion | mutagenic call (Species/Cell Type: Human, Assay Type: Sister-chromatid exchange (SCE) in vitro, Assay Code: SC1T, Evaluation Type: Evaluation B (Post-1980)): no conclusion

CCOC(=O)CC(SP(=S)(OC)OC)C(=O)OCC (stereo not given) (tested in a mixture with another compound)
mutagenic call (Species/Cell Type: Hordeum vulgare (barley), Assay Type: Chromosome aberrations, Assay Code: HOC+, Evaluation Type: Evaluation A (Pre-1980)): active; positive

Cc1ccc(N=Nc2ccc(N(C)C)cc2)cc1
mutagenic call (Species/Cell Type: Rat primary hepatocytes, Assay Type: Unscheduled DNA synthesis (UDS) in vitro, DNA effects, Assay Code: UDP-, Evaluation Type: Evaluation A (Pre-1980)): inactive; negative

Cc1ccc2cc3ccc4c(F)cccc4c3cc2c1
mutagenic call (Species/Cell Type: Mouse prostate cells, Assay Type: Cell transformation, Assay Code: CTM+, Evaluation Type: Evaluation A (Pre-1980)): active; positive

CC[C@H](C)[C@@H]1NC(=O)CNC(=O)[C@@H]2Cc3c([nH]c4cc(O)ccc34)S(=O)C[C@H](NC(=O)CNC1=O)C(=O)N[C@@H](CC(N)=O)C(=O)N1C[C@H](O)C[C@H]1C(=O)N[C@@H]([C@@H](C)[C@@H](O)CO)C(=O)N2 (stereo not given in full)
mutagenic call (Species/Cell Type: Drosophila melanogaster, Assay Type: Aneuploidy, whole sex chromosome loss, chromosome aberrations, Assay Code: DACT, Evaluation Type: Evaluation A (Pre-1980)): no conclusion
